Assay results as given in patent publication US12606528B2, “Methods and materials for inhibiting NF-kB activity” (University of Pittsburgh - Of the Commonwealth System of …, priority 2019, dated 2026).
pIC50: −log10 of the molar value.

The molecules below were run on NF-κB (assay: NF-κB assay: THP1-NF-κB-LUC cells, LPS-stimulated secreted luciferase). Settings: THP1-NF-κB-LUC cells, LPS-stimulated; read-out: IC50 (NF-κB assay).
Type: cell-based
Protocol: FIG. 1 contains line plots showing NF-κB activity of exemplified compounds. 25k THP1-NF-κB-LUC cells were dispensed into 384 well plate (per well). Cells were treated with compounds (2 μM and 0.2 μM) for 2 hours before addition of LPS (10 ng/mL) for 18 hours. Secreted luciferase activity were measured using quant-luc reagents (1 bag of luc reagent dilute to 40 mL, use 10 μL per well). Data were normalized to vehicle control and graphed. Structures of selected exemplified compounds are shown.
FIG. 2 contains heat charts showing NF-κB activity of exemplified compounds as a function of concentration. 25k THP1-NF-κB-LUC cells were dispensed into 384 well plate (per well). Cells were treated with compounds (with serial dilution) for 2 hours before addition of LPS (10 ng/ml) for 18 hours. Secreted luciferase activity were measured using quant-luc reagents (1 bag of luc reagent dilute to 40 mL, use 10 μL per well). Structures of selected exemplified compounds are shown.
25k THP1-NF-κB-LUC cells were dispensed into 384 well plate (per well). Cells were treated with compounds with various concentrations for 2 hours before addition of LPS (10 ng/mL) for 18 hours. Secreted luciferase activity were measured using quant-luc reagents (1 bag of luc reagent dilute to 40 mL, use 10 μL per well). Data were normalized to vehicle control and graphed. Compound IC50 towards inhibiting NF-κB were determined through Prism. Similarly, 10k human PBMCs cells were cultured in 384 well plate (per well). Cells were treated with compounds with various concentrations for 2 hours before addition of LPS (10 ng/ml) for 18 hours, and supernatants were collected and assayed for TNF ELISA. Compound IC50 towards inhibiting TNF release were determined through Prism. • Activity: “+”>10 μM, “++”>1 μM and <10 μM, “+++”>0.1 μM and <1 μM, “++++”<0.1 μM.

Row | Structure (SMILES) | pIC50
1 | O=C(NCCc1ccccc1)c1ccc2nc(-c3ccc(F)cc3)c(-c3ccc(F)cc3)nc2c1 [BC18435] | 6.00 to 7.00
2 | Cc1cccc(-c2nc3ccc(C(=O)N4CCN(c5ncccn5)CC4)cc3nc2-c2cccc(C)c2)c1 [BC18436] | 5.00 to 6.00
3 | O=C(NCCCN1CCOCC1)c1ccc2nc(-c3ccc(F)cc3)c(-c3ccc(F)cc3)nc2c1 [BC18437] | > 7.00
4 | O=C(NC1CC1)c1ccc2nc(-c3ccccc3)c(-c3ccccc3)nc2c1 [BC18439] | > 7.00
5 | CCCN1CCN(C(=O)c2ccc3nc(-c4ccccc4)c(-c4ccccc4)nc3c2)CC1 [BC18440] | > 7.00
6 | Cc1cccc(-c2nc3ccc(C(=O)NCCN4CCCCC4C)cc3nc2-c2cccc(C)c2)c1 (stereo not drawn) [BC18441] | 5.00 to 6.00
7 | CC(C)NC(=O)c1ccc2nc(-c3ccccc3)c(-c3ccccc3)nc2c1 [BC18443] | > 7.00
8 | Cc1ccc(-c2nc3ccc(C(=O)NCc4ccccc4)cc3nc2-c2ccc(C)cc2)cc1 [BC18444] | < 5.00
9 | Cc1cccc(CNC(=O)c2ccc3nc(-c4ccccc4)c(-c4ccccc4)nc3c2)c1 [BC18445] | 6.00 to 7.00
10 | Cc1cccc(-c2nc3ccc(C(=O)NCc4ccccc4)cc3nc2-c2cccc(C)c2)c1 [BC18446] | < 5.00
11 | O=C(NCc1ccccn1)c1ccc2nc(-c3ccc(F)cc3)c(-c3ccc(F)cc3)nc2c1 [BC18447] | > 7.00
12 | O=C(NC1CC1)c1ccc2nc(-c3ccc(F)cc3)c(-c3ccc(F)cc3)nc2c1 [BC18448] | > 7.00
13 | O=C(NCCN1CCCC1)c1ccc2nc(-c3ccc(F)cc3)c(-c3ccc(F)cc3)nc2c1 [BC18449] | > 7.00
14 | CNC(=O)c1ccc2nc(-c3ccccc3)c(-c3ccccc3)nc2c1 [BC18450] | > 7.00
15 | O=C(c1ccc2nc(-c3ccccc3)c(-c3ccccc3)nc2c1)N1CCN(c2ccc(F)cc2)CC1 [BC18451] | 6.00 to 7.00
16 | CCN1CCN(CCNC(=O)c2ccc3nc(-c4cccc(C)c4)c(-c4cccc(C)c4)nc3c2)CC1 [BC18452] | 5.00 to 6.00
17 | COc1ccc(-c2nc3ccc(C(=O)NCCN4CCOCC4)cc3nc2-c2ccc(OC)cc2)cc1 [BC18453] | 5.00 to 6.00
18 | CCCNC(=O)c1ccc2nc(-c3ccccc3)c(-c3ccccc3)nc2c1 [BC18454] | 6.00 to 7.00
19 | Cc1ccc(-c2nc3ccc(C(=O)NCc4ccc(Cl)cc4)cc3nc2-c2ccc(C)cc2)cc1 [BC18455] | < 5.00
20 | O=C(NCCN1CCCCC1)c1ccc2nc(-c3ccc(F)cc3)c(-c3ccc(F)cc3)nc2c1 [BC18456] | > 7.00
21 | Cc1cccc(-c2nc3ccc(C(=O)NCc4ccc(Cl)cc4)cc3nc2-c2cccc(C)c2)c1 [BC18457] | < 5.00
22 | O=C(NCc1cccnc1)c1ccc2nc(-c3ccc(F)cc3)c(-c3ccc(F)cc3)nc2c1 [BC18458] | > 7.00
23 | CN1CCN(CCNC(=O)c2ccc3nc(-c4ccc(F)cc4)c(-c4ccc(F)cc4)nc3c2)CC1 [BC18460] | > 7.00
24 | O=C(NCCN1CCCCCC1)c1ccc2nc(-c3ccccc3)c(-c3ccccc3)nc2c1 [BC18461] | > 7.00
25 | O=C(c1ccc2nc(-c3ccccc3)c(-c3ccccc3)nc2c1)N1CCN(C(=O)c2ccco2)CC1 [BC18462] | > 7.00

Row | Structure (SMILES) | pIC50
26 | Cc1cccc(-c2nc3ccc(C(=O)NCCN4CCN(C)CC4)cc3nc2-c2cccc(C)c2)c1 [BC18463] | 5.00 to 6.00
27 | O=C(NCCN1CCOCC1)c1ccc2nc(-c3ccccc3)c(-c3ccccc3)nc2c1 [BC18464] | > 7.00
28 | CC(C)CCNC(=O)c1ccc2nc(-c3ccccc3)c(-c3ccccc3)nc2c1 [BC18465] | 6.00 to 7.00
29 | Cc1ccc(-c2nc3ccc(C(=O)NCc4ccc(F)cc4)cc3nc2-c2ccc(C)cc2)cc1 [BC18466] | < 5.00
30 | CC(CNC(=O)c1ccc2nc(-c3ccc(F)cc3)c(-c3ccc(F)cc3)nc2c1)c1ccccc1 (stereo not drawn) [BC18467] | 6.00 to 7.00
31 | Cc1ccc(CNC(=O)c2ccc3nc(-c4cccc(C)c4)c(-c4cccc(C)c4)nc3c2)cc1 [BC18468] | < 5.00
32 | NC(=O)C1CCN(C(=O)c2ccc3nc(-c4ccc(F)cc4)c(-c4ccc(F)cc4)nc3c2)CC1 [BC18471] | > 7.00
33 | CCN1CCN(CCCNC(=O)c2ccc3nc(-c4ccccc4)c(-c4ccccc4)nc3c2)CC1 [BC18472] | 6.00 to 7.00
34 | CCN1CCN(C(=O)c2ccc3nc(-c4ccccc4)c(-c4ccccc4)nc3c2)CC1 [BC18473] | > 7.00
35 | Cc1cccc(-c2nc3ccc(C(=O)NCCN(C)C4CCCCC4)cc3nc2-c2cccc(C)c2)c1 [BC18474] | 5.00 to 6.00
36 | O=C(NCc1ccccc1)c1ccc2nc(-c3ccccc3)c(-c3ccccc3)nc2c1 [BC18475] | < 5.00
37 | O=C(c1ccc2nc(-c3ccccc3)c(-c3ccccc3)nc2c1)N1CCN(c2ccccn2)CC1 [BC18476] | 6.00 to 7.00
38 | CCOc1ccc(-c2nc3ccc(C(=O)NCCN(C)C)cc3nc2-c2ccc(OCC)cc2)cc1 [BC18477] | 5.00 to 6.00
39 | CN(C)c1ccc(CNC(=O)c2ccc3nc(-c4ccc(F)cc4)c(-c4ccc(F)cc4)nc3c2)cc1 [BC18478] | 6.00 to 7.00
40 | Cc1cccc(-c2nc3ccc(C(=O)NC(C)C)cc3nc2-c2cccc(C)c2)c1 [BC18479] | 5.00 to 6.00
41 | CN(C)CCNC(=O)c1ccc2nc(-c3ccc(F)cc3)c(-c3ccc(F)cc3)nc2c1 [BC18480] | > 7.00
42 | O=C(NCc1cccs1)c1ccc2nc(-c3ccc(F)cc3)c(-c3ccc(F)cc3)nc2c1 [BC18481] | > 7.00
43 | CN1CCN(C(=O)c2ccc3nc(-c4ccc(F)cc4)c(-c4ccc(F)cc4)nc3c2)CC1 [BC18482] | > 7.00
44 | CC1CCCCN1CCNC(=O)c1ccc2nc(-c3ccccc3)c(-c3ccccc3)nc2c1 (stereo not drawn) [BC18483] | > 7.00
45 | Cc1cccc(-c2nc3ccc(C(=O)NCCN(C)C)cc3nc2-c2cccc(C)c2)c1 [BC18484] | 5.00 to 6.00
46 | Cc1cccc(-c2nc3ccc(C(=O)NCCN4CCCCC4)cc3nc2-c2cccc(C)c2)c1 [BC18485] | 5.00 to 6.00
47 | Cc1ccc(CNC(=O)c2ccc3nc(-c4ccccc4)c(-c4ccccc4)nc3c2)cc1 [BC18486] | < 5.00
48 | CCOC(=O)N1CCN(C(=O)c2ccc3nc(-c4ccccc4)c(-c4ccccc4)nc3c2)CC1 [BC18487] | > 7.00
49 | CCOc1ccc(-c2nc3ccc(C(=O)NCCN(C)Cc4ccccc4)cc3nc2-c2ccc(OCC)cc2)cc1 [BC18488] | 5.00 to 6.00

The next lines start with the values.

Row | pIC50 | Structure (SMILES)
50 | > 7.00 | O=C(NCCCN1CCCC1)c1ccc2nc(-c3ccc(F)cc3)c(-c3ccc(F)cc3)nc2c1 [BC18438]
51 | > 7.00 | CC(C)CCNC(=O)c1ccc2nc(-c3ccc(F)cc3)c(-c3ccc(F)cc3)nc2c1 [BC18442]
52 | > 7.00 | O=C(NCCCN1CCCC1=O)c1ccc2nc(-c3ccc(F)cc3)c(-c3ccc(F)cc3)nc2c1 [BC18459]
53 | > 7.00 | CCN(CC)CCCNC(=O)c1ccc2nc(-c3ccc(F)cc3)c(-c3ccc(F)cc3)nc2c1 [BC18469]
54 | > 7.00 | COCCNC(=O)c1ccc2nc(-c3ccc(F)cc3)c(-c3ccc(F)cc3)nc2c1 [BC18470]
55 | > 7.00 | Cc1ccc(S(=O)(=O)c2nc(-c3ccccc3)oc2S(=O)(=O)c2ccc(C)cc2)cc1 [BC18500]
56 | < 5.00 | CC(=O)CSc1oc(-c2ccccc2)nc1S(=O)(=O)c1ccc(Cl)cc1 [BC18501]
57 | < 5.00 | CSc1oc(-c2ccccc2)nc1S(=O)(=O)c1ccc(F)cc1 [BC18502]
58 | 5.00 to 6.00 | CC(=O)CSc1oc(-c2ccc(F)cc2)nc1S(=O)(=O)c1ccccc1 [BC18503]
59 | 5.00 to 6.00 | O=S(=O)(c1ccccc1)c1nc(-c2ccc(F)cc2)oc1SCc1ccccc1F [BC18504]
60 | 5.00 to 6.00 | CCCCSc1oc(-c2ccc(F)cc2)nc1S(=O)(=O)c1ccc(C)cc1 [BC18505]
61 | < 5.00 | CCCCSc1oc(-c2ccc(F)cc2)nc1S(=O)(=O)c1ccc(F)cc1 [BC18506]
62 | 5.00 to 6.00 | CC(C)Sc1oc(-c2ccc(F)cc2)nc1S(=O)(=O)c1ccc(Cl)cc1 [BC18507]
63 | > 7.00 | CCS(=O)(=O)c1oc(-c2ccc(F)cc2)nc1S(=O)(=O)c1ccccc1 [BC18508]
64 | > 7.00 | CCCCS(=O)(=O)c1oc(-c2ccc(F)cc2)nc1S(=O)(=O)c1ccc(C)cc1 [BC18509]
65 | 6.00 to 7.00 | CCCCS(=O)(=O)c1oc(-c2ccc(F)cc2)nc1S(=O)(=O)c1ccc(F)cc1 [BC18510]
66 | > 7.00 | CC(C)S(=O)(=O)c1oc(-c2ccc(F)cc2)nc1S(=O)(=O)c1ccc(Br)cc1 [BC18511]
67 | 5.00 to 6.00 | CCSc1oc(-c2ccccc2)nc1S(=O)(=O)c1ccccc1 [BC18512]
68 | < 5.00 | CSc1oc(-c2ccccc2)nc1S(=O)(=O)c1ccc(Cl)cc1 [BC18513]
69 | 5.00 to 6.00 | CCSc1oc(-c2ccc(C)cc2)nc1S(=O)(=O)c1ccc(F)cc1 [BC18514]
70 | < 5.00 | CSc1oc(-c2ccc(F)cc2)nc1S(=O)(=O)c1ccccc1 [BC18515]
71 | 5.00 to 6.00 | O=C(CSc1oc(-c2ccc(F)cc2)nc1S(=O)(=O)c1ccccc1)c1ccc(Cl)cc1 [BC18516]
72 | 5.00 to 6.00 | CCC(C)Sc1oc(-c2ccc(F)cc2)nc1S(=O)(=O)c1ccc(C)cc1 (stereo not drawn) [BC18517]
73 | 5.00 to 6.00 | CCC(C)Sc1oc(-c2ccc(F)cc2)nc1S(=O)(=O)c1ccc(F)cc1 (stereo not drawn) [BC18518]
74 | < 5.00 | CCCCSc1oc(-c2ccc(F)cc2)nc1S(=O)(=O)c1ccc(Cl)cc1 [BC18519]
75 | > 7.00 | CCCS(=O)(=O)c1oc(-c2ccc(F)cc2)nc1S(=O)(=O)c1ccccc1 [BC18520]
